As usually defined, the EC50 is the concentration at which the effect is half-maximal. A word on the Emax: it is the maximal effect, on the per cent scale that the assay sets.

Structures are written as SMILES. Where two headings read alike, the source gives them in different places.

For this experiment, the target named is NTR1 (Homo sapiens, UniProt P30989). Briefly: NTR1 high-content imaging (HCS) dose response, NTR1-U2OS cells. The settings on record: n = 4 unless otherwise noted; for EC50: Ave. ± S.E.M., read-out: HCS NTR1 Potency EC50. The experiment is classed as cell-based. Details: host or cells: U2OS osteosarcoma. The source says: The cell lines utilized in the high-content imaging assays, which include the NTR1-, NTR2-, and GPR35-U2OS osteosarcomas, were obtained from the laboratory of Dr. Lawrence Barak at the Duke University Medical Center. The media used in the culture of the cell lines, as well as the assays themselves, consisted of Minimum Essential Medium (15-010-CM) and L-glutamine (25-005-CL) from Cellgro/Mediatech (Manassas, Va.), fetal bovine serum (SH30396.03) from Hyclone (Logan, Utah), penicillin-streptomycin solution (PS-20) from Omega Scientific in Tarzana, Calif., G418 (ant-gn-1) from Invivogen (San Diego, Calif.), and zeocin (R250-01) from Invitrogen (Carlsbad, Calif.). Cell lines were cultured in T225 tissue culture flasks (431082) supplied by Corning (Corning, N.Y.). Additional reagents employed include Dulbecco's Phosphate-Buffered Saline (DPBS) (21-031CV) from Cellgro/Mediatech, Trypsin-EDTA 0.05% (25300) from Invitrogen, paraformaldehyde (30528954) from Acros Organics (Geel, Belgium), Hoechst 33342 (H3570) from Invitrogen. The high-content assays were run in 1536-well plates (29326) supplied by Aurora Biotechnology (Poway, Calif.) and utilized aluminum plate seals (T592100) from E&K Scientific (Santa Clara, Calif.).
Chain of NTR1 (P30989 whole entry, species assumed): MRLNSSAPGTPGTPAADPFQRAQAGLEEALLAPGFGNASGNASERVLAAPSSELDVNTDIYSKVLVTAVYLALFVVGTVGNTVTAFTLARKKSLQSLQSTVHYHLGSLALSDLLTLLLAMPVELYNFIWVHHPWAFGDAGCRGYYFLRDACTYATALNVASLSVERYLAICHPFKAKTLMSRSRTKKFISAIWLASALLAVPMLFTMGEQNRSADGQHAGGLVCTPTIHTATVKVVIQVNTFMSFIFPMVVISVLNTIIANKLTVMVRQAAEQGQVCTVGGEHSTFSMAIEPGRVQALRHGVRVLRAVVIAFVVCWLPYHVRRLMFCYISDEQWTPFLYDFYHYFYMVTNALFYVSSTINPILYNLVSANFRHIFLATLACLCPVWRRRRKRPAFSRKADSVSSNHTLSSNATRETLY
The neurotensin 1 peptide (N6383) from Sigma-Aldrich (St. Louis, Mo.) was used as a positive control in the NTR1 primary HCS assay. For the NTR2 selectivity assay, the non-specific, small molecule 3-(4-fluorophenyl)-7,8-dimethoxy-5-(4-methylbenzyl)-5H-pyrazolo[4,3-c]quinolone which was synthesized internally was used as a positive control. The GPR35 selectivity screen utilized zaprinast (ALX430-020-M010) from Alexis Biochemicals (Farmingdale, N.Y.) as a control.
The high-content imaging based NTR1 primary screen in 1536-well format was utilized to assay the MLSMR library of chemical entities in the following manner. On day one, 4 uL of a cell suspension containing 350,000 NTR1-U2OS cells per mL is added to each well of a 1536-well assay plate. Cells are plated in MEM medium containing 2.5% Fetal Bovine Serum, 1% Penicillin/Streptomycin solution, 1% L-Glutamine, 400 ug/mL G418, and 200 ug/mL Zeocin. The assay plates are then incubated overnight at 37° C., under 5% CO2. Following the overnight incubation, a volume of 60 nL of the compounds at 2 mM in DMSO (final 20 μM, 1% DMSO) was transferred to columns 5-48 of the assay plates using a LabCyte Echo Liquid Handler. Next, 60 nL of DMSO were dispensed to columns 1-4, which served as the positive and neutral control wells. […] The assay plates were centrifuged on an Eppendorf 5810 centrifuge at 1000 rpm for 1 min to ensure even liquid levels in the wells of the assay plates. The assay plates were then returned to the incubator for 1 hour. Following the hour-long incubation at 37° C., the cells in each well were fixed with 4 uL of 6% paraformaldehyde added with a Multidrop Combi. The assay plates were centrifuged as before and incubated at room temperature for 1 hour. On the Kalypsys, plates were then aspirated down to 2.5 uL per well and washed twice with 11 uL per well of DPBS, followed by a final aspiration to 2.5 uL per well. On the Combi dispenser, 5 uL of 5 ug/mL Hoechst 33342 diluted in DPBS was added to each well of assay plates. The plates were again centrifuged as previously described, sealed, and incubated for at least 1 hour prior to being loaded on a PerkinElmer Opera QEHS.
Image acquisition was performed with a 45 plate capacity loader/stacker and the following settings: 40×0.6 NA air objective, acquisition camera set to 2-by-2 binning for an image size of 688 by 512 pixels, beta-arrestin-GFP acquired using 488 nm laser excitation and 540/75 nm emission filters, DAPI (nuclei) using 365 nm Xenon lamp excitation and 450/50 nm emission filters, 3 fields per well. Image analysis was performed using the Acapella Spot Detection Algorithm. For analysis settings and the metrics employed in the data analyses, please refer to supplemental information.

[1] abbreviates: read-out: HCS NTR1 Potency Emax.

For the compound `COc1cc2nc(C3CCC3)nc(N3CCN(c4ccccc4F)CC3)c2cc1OC` [Compound 324, 2-cyclobutyl-4-(4-(2-fluorophenyl)piperazin-1-yl)-6,7-dimethoxyquinazoline], the half-maximal effective concentration (EC50) came to 17.7 ± 1 µM. Moreover, the Emax under setting [1] worked out at 97.2%.

Regarding `COc1ccc2nc(C3CC3)nc(N3CCN(c4ccccc4OC)CC3)c2c1` [Compound 338, 2-cyclopropyl-6-methoxy-4-(4-(2-methoxyphenyl)piperazin-1-yl)quinazoline], the EC50 amounted to 4.1 ± 0.5 µM. Also, the Emax under setting [1] came to 95.7%.

As to `COc1ccccc1CN1CCN(c2nc(C3CC3)nc3cc(OC)c(OC)cc23)CC1` [Compound 343, 2-cyclopropyl-6,7-dimethoxy-4-(4-(2-methoxybenzyl)piperazin-1-yl)quinazoline], the concentration giving a half-maximal response (EC50) turned out to be 34.9 ± 4.4 µM. Also, the maximal effect (Emax) under setting [1] came to 100%.

For `COc1ccc(N2CCN(c3nc(C4CCC4)nc4cc(OC)c(OC)cc34)CC2)c(OC)c1` [Compound 330, 2-cyclobutyl-4-(4-(2,4-dimethoxyphenyl)piperazin-1-yl)-6,7-dimethoxyquinazoline], the EC50 was 22.8 ± 0.4 µM. Besides, the Emax under setting [1] is 103%.

As for `COc1cc2nc(C(C)C)nc(N3CCN(c4ccccc4OC)CC3)c2cc1OC` [Compound 312, 2-isopropyl-6,7-dimethoxy-4-(4-(2-methoxyphenyl)piperazin-1-yl)quinazoline], the EC50 was 7.7 ± 1 µM. Also, under setting [1], the Emax came out at 100%.

As to `COc1cc2nc(C3CCC3)nc(N3CCN(c4ccccc4Cl)CC3)c2cc1OC` [Compound 325, 4-(4-(2-chlorophenyl)piperazin-1-yl)-2-cyclobutyl-6,7-dimethoxyquinazoline], the EC50 was found to be 12.2 ± 2.5 µM. The maximal response (Emax) under setting [1] came to 70.5%.

With `COc1ccccc1N1CCN(c2nc(C3CCC3)nc3cc4c(cc23)OCO4)CC1` [Compound 337, 6-cyclobutyl-8-(4-(2-methoxyphenyl)piperazin-1-yl)-[1,3]dioxolo[4,5-g]quinazoline], the EC50 is 33.7 ± 16.7 µM. Besides, the Emax under setting [1] is 87%.

For `COc1cc2nc(C3CC3)nc(N3CCN(C(=O)c4ccccc4)CC3)c2cc1OC` [Compound 344, (4-(2-cyclopropyl-6,7-dimethoxyquinazolin-4-yl)piperazin-1-yl)(phenyl)methanone], the EC50 worked out at 45.3 µM. The Emax under setting [1] is 100%.

For `COc1cc2nc(Cc3ccccc3)nc(N3CCN(c4ccccc4OC)CC3)c2cc1OC` [Compound 309, 2-benzyl-6,7-dimethoxy-4-(4-(2-methoxyphenyl)piperazin-1-yl)quinazoline], the EC50 was 13.8 ± 3.4 µM. Also, the Emax under setting [1] came to 81.9%.

As for `COc1cc2nc(C3CCCC3)nc(N3CCN(c4ccccc4OC)CC3)c2cc1OC` [Compound 316, 2-cyclopentyl-6,7-dimethoxy-4-(4-(2-methoxyphenyl)piperazin-1-yl)quinazoline], the EC50 was found to be 5.8 ± 1.5 µM. Under setting [1], the Emax is 92.8%.

With `COc1cc2nc(C3CC3)nc(N3CCN(C(=O)c4ccccc4OC)CC3)c2cc1OC` [Compound 345, (4-(2-cyclopropyl-6,7-dimethoxyquinazolin-4-yl)piperazin-1-yl)(2-methoxyphenyl)methanone], the EC50 stood at 67.7 ± 5.5 µM. Further, the maximal response (Emax) under setting [1] turned out to be 100%.

In the case of `CCc1nc(N2CCN(c3ccccc3OC)CC2)c2cc(OC)c(OC)cc2n1` [Compound 310, 2-ethyl-6,7-dimethoxy-4-(4-(2-methoxyphenyl)piperazin-1-yl)quinazoline], the EC50 was found to be 42.6 ± 4.4 µM. Under setting [1], the Emax was determined as 100%.

Consider `CCOc1ccccc1N1CCN(c2nc(C3CC3)nc3cc(OC)c(OC)cc23)CC1` [Compound 339, 2-cyclopropyl-4-(4-(2-ethoxyphenyl)piperazin-1-yl)-6,7-dimethoxyquinazoline], for which the EC50 is 6.1 ± 0.4 µM. Further, the Emax under setting [1] stood at 98.4%.

As for `COc1cc2nc(-c3ccccc3)nc(N3CCN(c4ccccc4OC)CC3)c2cc1OC` [6,7-di-OMe; phenyl; 2-OMe, 2-phenyl-6,7-dimethoxy-4-(4-(2-methoxyphenyl)piperazin-1-yl)quinazoline], the EC50 was 20 ± 10.7 µM. Under setting [1], the Emax was found to be 78%.

Regarding `COc1ccc2nc(C3CCC3)nc(N3CCN(c4ccccc4OC)CC3)c2c1` [Compound 334, 2-cyclobutyl-6-methoxy-4-(4-(2-methoxyphenyl)piperazin-1-yl)quinazoline], the EC50 was found to be 10 ± 1.57 µM. For the same compound, under setting [1], the Emax stood at 102%.

With `COc1cc2nc(CC3CC3)nc(N3CCN(c4ccccc4OC)CC3)c2cc1OC` [Compound 317, 2-(cyclopropylmethyl)-6,7-dimethoxy-4-(4-(2-methoxyphenyl)piperazin-1-yl)quinazoline], the EC50 is 14.2 ± 1.2 µM. The Emax under setting [1] amounted to 96.9%.

For the compound `COc1cc2nc(C3CCC3)nc(N3CCN(c4c(C)cccc4C)CC3)c2cc1OC` [Compound 331, 2-cyclobutyl-4-(4-(2,6-dimethylphenyl)piperazin-1-yl)-6,7-dimethoxyquinazoline], the EC50 was found to be 61.2 ± 5.2 µM. Moreover, the maximal response (Emax) under setting [1] was 100%.

Turning to `COc1cc2nc(C3CC3)nc(N3CCN(Cc4ccc(C)cc4)CC3)c2cc1OC` [Compound 342, 2-cyclopropyl-6,7-dimethoxy-4-(4-(4-methylbenzyl)piperazin-1-yl)quinazoline], the EC50 came to 25 ± 3.2 µM.

Regarding `COc1cc2nc(C3CCC3)nc(N3CCN(c4ccccc4C)CC3)c2cc1OC` [Compound 323, 2-cyclobutyl-6,7-dimethoxy-4-(4-(o-tolyl)piperazin-1-yl)quinazoline], the EC50 was found to be 14.9 ± 3.2 µM. For the same compound, the Emax (heading: HCS NTR1 Potency Emax) turned out to be 91.6%.

As for `COc1cc2nc(-c3ccccc3)nc(N3CCN(c4ccc(F)cc4)CC3)c2cc1OC` [6,7-di-OMe; phenyl; 4-F, 2-phenyl-6,7-dimethoxy-4-(4-(4-fluorophenyl)piperazin-1-yl)quinazoline], the EC50 is greater than 80 µM.

In the case of `COc1cc2nc(CC(C)C)nc(N3CCN(c4ccccc4OC)CC3)c2cc1OC` [Compound 313, 2-isobutyl-6,7-dimethoxy-4-(4-(2-methoxyphenyl)piperazin-1-yl)quinazoline], the EC50 came to 15.1 ± 1.5 µM. For the same compound, the Emax under setting [1] is 96.3%.

With `COc1cc2nc(C3CCC3)nc(N3CCN(c4ccccc4[N+](=O)[O-])CC3)c2cc1OC` [Compound 327, 2-cyclobutyl-6,7-dimethoxy-4-(4-(2-nitrophenyl)piperazin-1-yl)quinazoline], the EC50 is 75.4 ± 1.1 µM. Also, the Emax under setting [1] came to 100%.

Consider `COc1ccc(N2CCN(c3nc(C4CCC4)nc4cc(OC)c(OC)cc34)CC2)cc1` [Compound 329, 2-cyclobutyl-6,7-dimethoxy-4-(4-(4-methoxyphenyl)piperazin-1-yl)quinazoline], for which the 50% effective concentration (EC50) stood at 46.4 ± 17.6 µM. The Emax under setting [1] was 100%.

For the compound `C=Cc1nc(N2CCN(c3ccccc3OC)CC2)c2cc(OC)c(OC)cc2n1` [Compound 314, 6,7-dimethoxy-4-(4-(2-methoxyphenyl)piperazin-1-yl)-2-vinylquinazoline], the concentration giving a half-maximal response (EC50) was determined as 7 ± 1 µM. For the same compound, the Emax under setting [1] stood at 100%.

On to `CCCc1nc(N2CCN(c3ccccc3OC)CC2)c2cc(OC)c(OC)cc2n1` [Compound 311, 6,7-dimethoxy-4-(4-(2-methoxyphenyl)piperazin-1-yl)-2-propylquinazoline], for which the EC50 amounted to 16.6 ± 1.7 µM. For the same compound, the maximal effect (Emax) under setting [1] came to 100%.

The values are drawn from patent publication US9868707B2, “Small molecule agonists of neurotensin receptor 1” (SANFORD-BURNHAM MEDICAL RESEARCH INSTITUTE, priority 2012, dated 2018).
